Experimental data taken from US20240042045A1, “NANOPARTICLES CONTAINING MULTIPLE CLEAVABLE PRODUGS FOR CANCER THERAPY” (The University of Chicago, priority 2020, published 2024).
Where a name gives a salt, the structure may show the parent alone. Read-outs that look alike come from different tables or passages of the source. Blank lines part the entries; values can stand above or below the compound they belong to.

What was measured:
MC38 cells = experiment: In vitro cytotoxicity in MC38 cells; format: cell-based, murine
Method: (§1) The cell viability was measured by […].

Panc02 cells = experiment: In vitro cytotoxicity in Panc02 cells (MTS assay); format: cell-based, murine
Method: (§2) The cell viability was measured by MTS assay.

KPC cells = experiment: In vitro cytotoxicity in KPC cells (MTS assay); format: cell-based, murine; details: 48 h
Method: as §2

apoptosis/necrosis [1] = experiment: Apoptosis/necrosis analysis by flow cytometry (Annexin V / PI); format: cell-based; details: for percentage of apoptosis: flow cytometry
Method: Apoptosis/necrosis analysis was also performed on OxPt and/or SN38 treated cells by flow cytometry.

CT26 cells = experiment: In vitro cytotoxicity in CT26 cells; format: cell-based, murine
Method: as §1

CT26 and MC38 cells [2] = system: CT26 and MC38 cells
CT26 and MC38 cells [3] = experiment: cells; details: Mus musculus
[4] = Conversion of SN38-TMS to SN38 at pH 5.5 and 7.4; format: physicochemical; details: for SN38-TMS converted to SN38: pH=5.5, 37° C.
Method: SN38-TMS was incubated in acidic conditions mimicking endosomes at 37° C. At pH=5.5, 70% SN38-TMS was converted to SN38 in 24 h and 92% […] SN38-TMS was converted to SN38 in 48 h.

[5] = Dynamic light scattering (DLS) of particles; format: physicochemical; details: DLS of OxPt/GEM-core nanoparticles made with the named Chol-disulfide prodrug
Method: Synthesis and characterization of OxPt/GEM/SN38 core-shell nanoparticle NCP particles with OxPt-bp and gemcitabine monophosphate (GMP) in the core and Chol-SN38 on the shell, referred to as “OxPt/GMP/SN38,” was synthesized in two steps. […] An aqueous solution of Zn(NO3)2 (60 mg, 600 mg/mL) was added to a 5 mL of 0.3M Triton X-100/1.5M 1-hexanol in cyclohexane and stirred vigorously for 5 min. The Zn(NO3)2-containing microemulsion was added dropwise to the OxPt-bp-containing microemulsion and stirred vigorously for 30 min at room temperature. After the addition of 10 mL ethanol, OxPt-bare was obtained by centrifugation at 11,628×g. The resulting pellet was washed twice with THF/ethanol and finally re-dispersed in THF. The loadings of OxPt in the particles were determined by ICP-MS (Agilent 7700x, Agilent Technologies, Santa Clara, California, United States of America) after digestion with nitric acid. The particle size and zeta potential were determined by dynamic light scattering using a Zetasizer (Nano ZS, Malvern, United Kingdom).

[6] = cited from earlier work
4T1 cells = experiment: In vitro cytotoxicity in 4T1 cells (MTS assay); format: cell-based, murine; details: 48 h
apoptosis/necrosis [7] = experiment: Apoptosis/necrosis analysis of cells treated with Carb and/or DTX; format: cell-based; details: 10 μM Carb and/or DTX
Method: Apoptosis/necrosis analysis was also performed on cells treated with 10 μM Carb and/or DTX by flow cytometry.

H460 cells = experiment: In vitro cytotoxicity in H460 cells (MTS assay); format: cell-based, human
LDL [8] = experiment: Binding kinetics to LDL in rat plasma at 37° C.; details: for binding to LDL: Chol-SN38 measured for Chol-SN38 and OxPt/SN38
lipoproteins = experiment: Distribution in lipoproteins after incubation in rat plasma (NaBr gradient ultracentrifugation, LC-MS); details: 37° C., 3 h, Chol-SN38 measured for OxPt/SN38
Text: Lipoproteins were separated based on their densities by NaBr gradient ultracentrifugation.

LL/2 lung cancer cells = experiment: Cytotoxicity of Chol-PTX; format: cell-based
CT26 and MC38 cells [9] = experiment: In vitro cytotoxicity, values not assigned to one colon cancer cell line
LDL [10] = experiment: Isothermal titration calorimetry (ITC) binding to LDL
Method: (§3) LDL is the key transporter of cholesterol and cholesterol esters to peripheral cells. It was hypothesized that LDL would strongly bind to Chol-SN38 to enhance its delivery to tumors via LDLR-mediated endocytosis.
Apparent LDL binding affinity of two control particles, OxPt NCP without chol and Chol-SN38 micelle (without the NCP core) was determined to understand which components of the particles bind to LDL.

albumin = albumin (Homo sapiens, UniProt P02768); experiment: ITC binding to albumin
Text: as §3

[11] = MC38 cells, 48 h, for OxPt/SN38 the OxPt IC50, read-out: IC50
[12] = Panc02 cells, 48 h, read-out: IC50
[13] = CT26 cells, 48 h, for OxPt/SN38 the OxPt IC50, read-out: IC50

albumin, sequence (P02768 25-609, species assumed): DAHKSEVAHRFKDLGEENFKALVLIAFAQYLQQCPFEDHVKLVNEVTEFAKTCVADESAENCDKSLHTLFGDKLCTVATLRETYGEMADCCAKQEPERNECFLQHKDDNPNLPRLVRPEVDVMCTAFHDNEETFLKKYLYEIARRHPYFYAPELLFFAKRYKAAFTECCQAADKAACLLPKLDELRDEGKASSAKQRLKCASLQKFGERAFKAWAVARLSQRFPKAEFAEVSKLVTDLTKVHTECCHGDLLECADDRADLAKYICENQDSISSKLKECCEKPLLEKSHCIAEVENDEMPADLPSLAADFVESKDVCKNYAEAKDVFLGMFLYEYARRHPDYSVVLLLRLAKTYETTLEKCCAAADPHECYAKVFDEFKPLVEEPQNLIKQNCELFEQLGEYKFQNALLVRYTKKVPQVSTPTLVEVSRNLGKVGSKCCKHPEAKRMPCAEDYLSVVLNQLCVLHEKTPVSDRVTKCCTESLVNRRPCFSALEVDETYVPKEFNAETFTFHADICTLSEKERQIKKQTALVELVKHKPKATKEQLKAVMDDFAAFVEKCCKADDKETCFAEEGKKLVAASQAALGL

Compound: O=C1[O][Pt]2([NH][C@@H]3CCCC[C@H]3[NH]2)[O]C1=O [OxPt, oxaliplatin]
IC50 (MC38 cells; [11]): 11.4 ± 1.68 µM
IC50 (Panc02 cells; [12]): 14000 ± 4880 nM
IC50 (KPC cells; KPC cells, read-out: IC50): 5940 ± 1730 nM
early apoptotic Annexin V+/PI− cells (apoptosis/necrosis [1]): 8.0±0.6%
percentage of apoptosis (apoptosis/necrosis [1]): 12.1%
IC50 (CT26 cells; [13]): 9.11 ± 0.72 µM

Compound: CCc1c2c(nc3ccc(O)cc13)-c1cc3c(c(=O)n1C2)COC(=O)C3(CC)OC(=O)OC(C)(C)C (stereo not shown) [SN38-Boc, 20-O-Boc-SN38]
cytotoxicity (CT26 and MC38 cells [2]; concentrations up to 300 μM): no cytotoxicity

IC50 (CT26 and MC38 cells [3]): ~80 µM
Compound: CCc1c2c(nc3ccc(OC(=O)N4CCC(N5CCCCC5)CC4)cc13)-c1cc3c(c(=O)n1C2)COC(=O)[C@]3(O)CC [Irinotecan, irinotecan]
IC50 (MC38 cells; Mus musculus, MC-38, 48 h, read-out: IC50): 88.4 ± 7.48 µM
IC50 (CT26 cells; Mus musculus, CT26, 48 h, read-out: IC50): 79.4 ± 6.94 µM

Compound: CCc1c2c(nc3ccc(O)cc13)-c1cc3c(c(=O)n1C2)COC(=O)[C@@]3(CC)O[Si](C)(C)C [SN38-TMS, 20-O-Trimethylsilyl SN38]
SN38 released from SN38-TMS ([4]; pH 7.4, 24 h): 26%
SN38 released from SN38-TMS ([4]; pH 7.4, 48 h): 63%
SN38-TMS converted to SN38 ([4]; 24 h): 70%
SN38-TMS converted to SN38 ([4]; 48 h): 92%

Compound: CC[C@@]1(OC(=O)OCCSSCCOC(=O)O[C@H]2CC[C@@]3(C)C(=CC[C@H]4[C@@H]5CC[C@H]([C@H](C)CCCC(C)C)[C@@]5(C)CC[C@@H]43)C2)C(=O)OCc2c1cc1n(c2=O)Cc2cc3ccccc3nc2-1 [Chol-SS-CPT]
PDI [5]: 0.434
Z-Average (nm) [5]: 263.2 nm

Compound: CC(C)CCC[C@@H](C)[C@H]1CC[C@H]2[C@@H]3CC=C4C[C@@H](O)CC[C@]4(C)[C@H]3CC[C@]12C [cholesterol]
Log P [6]: 7.02

Compound: CC(=O)O[C@@]12CO[C@@H]1C[C@H](O)[C@@]1(C)C(=O)[C@H](O)C3=C(C)[C@@H](OC(=O)[C@H](O)[C@@H](NC(=O)OC(C)(C)C)c4ccccc4)C[C@@](O)([C@@H](OC(=O)c4ccccc4)[C@H]21)C3(C)C [DTX, docetaxel]
IC50 (4T1 cells; Mus musculus): 4.7 µM
percentage of apoptosis (apoptosis/necrosis [7]): 3.30%
IC50 (H460 cells; Homo sapiens, NCI-H460, 48 h): 3.69 µM

Compound: CCc1c2c(nc3ccc(O)cc13)-c1cc3c(c(=O)n1C2)COC(=O)[C@]3(O)CC [SN38]
binding to LDL (LDL [8]): 17.1±1.5%
distribution in HDL (lipoproteins): 14%
distribution in LDL fraction (lipoproteins): 17%
distribution in albumin fraction (lipoproteins): 69%
IC50 (MC38 cells; [11]): 0.24 ± 0.08 µM
IC50 of SN38 (CT26 and MC38 cells [2]; cell line not stated): 86 ng/mL
IC50 (Panc02 cells; [12]): 170 ± 120 nM
IC50 (KPC cells; KPC cells, read-out: IC50): 300 ± 90 nM
early apoptotic Annexin V+/PI− cells (apoptosis/necrosis [1]): 25.7±1.5%
percentage of apoptosis (apoptosis/necrosis [1]): 34.8%
Log P [6]: 3.37
IC50 (CT26 cells; [13]): 0.22 ± 0.05 µM

Compound: Nc1ccn([C@@H]2O[C@H](CO)[C@@H](O)C2(F)F)c(=O)n1 [GEM, gemcitabine]
IC50 (Panc02 cells; Mus musculus, Panc02 cells, 48 h, read-out: IC50): 110 ± 30 nM
IC50 (KPC cells; Mus musculus, KPC cells, read-out: IC50): 670 ± 180 nM

Compound: CC(=O)O[C@H]1C(=O)[C@]2(C)[C@@H](OC(=O)OCOC(=O)CCC(=O)O[C@H]3CC[C@@]4(C)C(=CC[C@H]5[C@@H]6CC[C@H]([C@H](C)CCCC(C)C)[C@@]6(C)CC[C@@H]54)C3)C[C@H]3OC[C@@]3(OC(C)=O)[C@H]2[C@H](OC(=O)c2ccccc2)[C@]2(O)C[C@H](OC(=O)[C@H](O)[C@@H](NC(=O)c3ccccc3)c3ccccc3)C(C)=C1C2(C)C [Chol-PTX, Cholesterol-Paclitaxel]
IC50 (LL/2 lung cancer cells): 3.95 µM

Compound: N.N.O=C([O-])C1(C(=O)[O-])CCC1.[Pt+2] [Carb, carboplatin]
IC50 (4T1 cells): 0.91 µM
percentage of apoptosis (apoptosis/necrosis [7]): 2.90%
IC50 (H460 cells; 48 h): 3.9 µM

Compound: CCc1c2c(nc3ccc(OC(=O)OCOC(=O)CCC(=O)O[C@H]4CC[C@@]5(C)C(=CC[C@H]6[C@@H]7CC[C@H]([C@H](C)CCCC(C)C)[C@@]7(C)CC[C@@H]65)C4)cc13)-c1cc3c(c(=O)n1C2)COC(=O)[C@@]3(CC)O[Si](C)(C)C [Chol-SN38, 7-ethyl-10-(((((cholest-5-en-3-oxy)-4-oxobutanoyl)oxy)methoxy)-carbonyl)oxyl-20-O-trimethylsilyl camptothecin]
cytotoxicity relative to irinotecan (CT26 and MC38 cells [9]): 5-10 times
time to reach equilibrium binding to LDL (LDL [8]): ≤ 1 h
binding to LDL (LDL [8]): 74.5±3.6%
distribution in HDL (lipoproteins): 5%
distribution in LDL fraction (lipoproteins): 86%
distribution in VLDL (lipoproteins): 9%
IC50 (MC38 cells; Mus musculus, MC-38, 48 h, MC38 cells, 48 h, for OxPt/SN38 the OxPt IC50): 10.2 ± 1.99 µM
IC50 (Panc02 cells; Mus musculus, Panc02, 48 h): 14600 ± 4870 nM
Ka to LDL relative to binding affinity to albumin (LDL [10]): > 2000 times
binding constant (Ka) to LDL (LDL [10]; ITC, apparent Ka for the particle): (4.97±0.24)×10^5 M^−1
Binding affinity Ka (LDL [10]; protein LDL): 49.7 ± 2.43 10^4 M^−1
IC50 (KPC cells; Mus musculus): 3180 ± 1010 nM
Kd (albumin): 4.44 mM
IC50 (CT26 cells; Mus musculus, CT26, 48 h, CT26 cells, 48 h, for OxPt/SN38 the OxPt IC50): 7.41 ± 1.03 µM

Compound: CCc1c2c(nc3ccc(OC(=O)N4CCC(N5CCCCC5)CC4)cc13)-c1cc3c(c(=O)n1C2)COC(=O)[C@]3(O)CC [irinotecan hydrochloride]
Log P [6]: −0.45

Compound: gemcitabine monophosphate [GMP]
IC50 (Panc02 cells; [12]): 60 ± 20 nM
IC50 (KPC cells; KPC cells, read-out: IC50): 300 ± 70 nM

Compound: CCc1c2c(nc3ccc(OC(=O)OCCSSCCOC(=O)O[C@H]4CC[C@@]5(C)C(=CC[C@H]6[C@@H]7CC[C@H]([C@H](C)CCCC(C)C)[C@@]7(C)CC[C@@H]65)C4)cc13)-c1cc3c(c(=O)n1C2)COC(=O)[C@@]3(CC)O[Si](C)(C)C [Chol-SS-SN38]
PDI [5]: 0.38
Z-Average (nm) [5]: 172.3 nm

Compound: CCc1c2c(nc3ccc(OC(=O)OC(C)(C)C)cc13)-c1cc3c(c(=O)n1C2)COC(=O)[C@@]3(CC)OC(=O)OCCSSCCOC(=O)O[C@H]1CC[C@@]2(C)C(=CC[C@H]3[C@@H]4CC[C@H]([C@H](C)CCCC(C)C)[C@@]4(C)CC[C@@H]32)C1 [Chol-SS-SN38-Boc]
PDI [5]: 0.211
Z-Average (nm) [5]: 96.79 nm

Compound: CC(=O)O[C@@]12CO[C@@H]1C[C@H](O)[C@@]1(C)C(=O)[C@H](O)C3=C(C)[C@@H](OC(=O)[C@H](OC(=O)OCOC(=O)CCC(=O)O[C@H]4CC[C@@]5(C)C(=CC[C@H]6[C@@H]7CC[C@H]([C@H](C)CCCC(C)C)[C@@]7(C)CC[C@@H]65)C4)[C@@H](NC(=O)OC(C)(C)C)c4ccccc4)C[C@](O)([C@@H](OC(=O)c4ccccc4)[C@H]21)C3(C)C [Chol-DTX, Cholesterol-Docetaxel]
IC50 (4T1 cells; Mus musculus): 15.3 µM
IC50 (H460 cells; Homo sapiens, NCI-H460, 48 h): 11.4 µM
